In ChEMBL document CHEMBL1137604, “Structure-activity relationship study on the 6-membered heteroaromatic ring system of diphenylpyrazine-type prostacyclin receptor agonists” (Bioorg Med Chem Lett, 2007):

System: Plasma
Experiment: Inhibition of ADP-induced platelet aggregation in human platelet rich plasma

Row | SMILES | IC50 [µM]
1 | CN(CCCCOCC(=O)O)c1cc(-c2ccccc2)c(-c2ccccc2)cn1 | 1.1
2 | CN(CCCCOCC(=O)O)c1nnc(-c2ccccc2)c(-c2ccccc2)n1 | 1.3
3 | CN(CCCCOCC(=O)O)c1cc(-c2ccccc2)c(-c2ccccc2)nn1 | 8.6

Stronger by IC50, values ahead:

Row | IC50 [µM] | SMILES
4 | 0.8 | CN(CCCCOCC(=O)O)c1cnc(-c2ccccc2)c(-c2ccccc2)c1
5 | 0.8 | CN(CCCCOCC(=O)O)c1ncc(-c2ccccc2)c(-c2ccccc2)n1
6 | 0.2 | CN(CCCCOCC(=O)O)c1ccc(-c2ccccc2)c(-c2ccccc2)n1
